The values that follow come from patent publication US9938273B2 (Plexxikon Inc., priority 2015, dated 2018).

Test [1] has as its target T1, BA/F3-FLT3-ITD + D835Y cells (Homo sapiens, UniProt P36888, D835Y, cells depend on it, form not given).
T1 sequence (P36888 1-993 D835Y): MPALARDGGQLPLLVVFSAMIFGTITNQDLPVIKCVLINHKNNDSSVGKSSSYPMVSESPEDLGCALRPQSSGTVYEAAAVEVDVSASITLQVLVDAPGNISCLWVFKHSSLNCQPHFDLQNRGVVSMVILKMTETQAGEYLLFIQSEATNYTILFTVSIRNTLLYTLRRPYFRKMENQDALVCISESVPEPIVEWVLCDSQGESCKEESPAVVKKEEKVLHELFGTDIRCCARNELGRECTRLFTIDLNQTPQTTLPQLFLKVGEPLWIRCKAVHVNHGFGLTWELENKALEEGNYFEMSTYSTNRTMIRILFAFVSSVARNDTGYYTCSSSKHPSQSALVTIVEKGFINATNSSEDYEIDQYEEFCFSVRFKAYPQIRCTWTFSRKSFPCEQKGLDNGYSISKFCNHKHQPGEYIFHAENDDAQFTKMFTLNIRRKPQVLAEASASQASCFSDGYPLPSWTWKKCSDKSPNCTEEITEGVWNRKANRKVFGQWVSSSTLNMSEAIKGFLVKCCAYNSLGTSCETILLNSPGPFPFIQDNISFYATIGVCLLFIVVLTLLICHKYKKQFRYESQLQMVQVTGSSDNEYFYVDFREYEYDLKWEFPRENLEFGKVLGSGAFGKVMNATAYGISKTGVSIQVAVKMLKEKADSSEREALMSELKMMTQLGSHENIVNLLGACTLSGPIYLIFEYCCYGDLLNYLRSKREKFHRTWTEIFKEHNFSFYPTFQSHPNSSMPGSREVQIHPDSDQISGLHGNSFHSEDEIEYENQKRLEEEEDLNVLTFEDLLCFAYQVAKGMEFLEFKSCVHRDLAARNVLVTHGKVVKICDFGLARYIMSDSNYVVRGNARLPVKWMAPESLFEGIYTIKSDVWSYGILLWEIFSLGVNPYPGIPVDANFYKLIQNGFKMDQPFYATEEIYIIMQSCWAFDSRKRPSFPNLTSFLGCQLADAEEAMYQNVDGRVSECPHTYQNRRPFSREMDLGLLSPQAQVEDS
Kind of test: Cell proliferation assay (CellTiter-Glo), engineered BA/F3 cells. Conditions: BaF3 FLT3 ITD/D835Y cells, 3d-Growth; read-out: BaF3_FLT3 ITD/D835Y 3d-Growth: IC50. The class given is cell-based, murine. The essentials:
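MOLM-14 AML cells (endogenous FLT3 ITD, AC220-selected D835Y or F691L variants) or murine Ba/F3 expressing full-length FLT3 ITD/D835Y, without IL-3 for FLT3 dependence, 1×10^4 cells/well. Eight-point 1:3 series from 1 μM final, 0.2% DMSO, 3 days at 37 °C. CellTiter-Glo luminescence (ATP) gave IC50.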

The next test deals with T2, c-KIT (Homo sapiens, UniProt P10721).
T2 construct: purchased Millipore 14-559K
T2 sequence (P10721 26-976): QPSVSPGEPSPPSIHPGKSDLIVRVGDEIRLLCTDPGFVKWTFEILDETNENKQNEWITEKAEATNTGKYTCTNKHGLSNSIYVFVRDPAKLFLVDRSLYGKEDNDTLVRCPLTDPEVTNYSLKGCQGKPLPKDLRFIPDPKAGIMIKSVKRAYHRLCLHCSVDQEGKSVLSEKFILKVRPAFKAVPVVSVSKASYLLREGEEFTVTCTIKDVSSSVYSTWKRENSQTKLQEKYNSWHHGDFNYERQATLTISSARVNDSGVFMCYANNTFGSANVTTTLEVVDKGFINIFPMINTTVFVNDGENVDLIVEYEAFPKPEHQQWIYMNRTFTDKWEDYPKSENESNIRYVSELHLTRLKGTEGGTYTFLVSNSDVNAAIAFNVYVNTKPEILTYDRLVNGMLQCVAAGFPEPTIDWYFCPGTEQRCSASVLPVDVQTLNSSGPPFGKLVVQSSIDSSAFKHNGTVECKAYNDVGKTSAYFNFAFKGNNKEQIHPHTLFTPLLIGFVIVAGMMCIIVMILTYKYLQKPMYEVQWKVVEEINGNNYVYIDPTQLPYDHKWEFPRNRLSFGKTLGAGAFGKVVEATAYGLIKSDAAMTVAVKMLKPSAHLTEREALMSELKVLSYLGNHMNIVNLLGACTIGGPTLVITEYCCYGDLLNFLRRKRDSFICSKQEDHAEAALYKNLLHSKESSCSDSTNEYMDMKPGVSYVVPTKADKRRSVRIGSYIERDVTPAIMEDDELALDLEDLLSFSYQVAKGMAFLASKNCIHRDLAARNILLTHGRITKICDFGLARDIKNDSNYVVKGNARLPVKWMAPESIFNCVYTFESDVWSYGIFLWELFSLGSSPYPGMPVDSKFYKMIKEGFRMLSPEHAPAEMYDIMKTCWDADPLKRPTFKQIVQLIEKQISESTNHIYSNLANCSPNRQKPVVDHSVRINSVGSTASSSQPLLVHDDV
Kind of test: AlphaScreen kinase assay with recombinant enzyme, c-KIT. Format: biochemical. As to conditions: 100ATP, 8pt, GMean. The essentials: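 Recombinant kinase phosphorylates biotinylated poly(Glu4-Tyr) peptide (30 nM final); streptavidin donor and anti-phosphotyrosine PY20 acceptor beads (10 μg/mL final) give a 580 nm proximity signal on 680 nm excitation. IC50 determinations used a final concentration of 10 μM for FLT3-D835Y/FLT3-ITD and 100 μM for c-KIT.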

pIC50: −log10 of the molar value.

A word on the pIC50: it is the negative decadic logarithm of the IC50, by convention in mol/L.

In the case of `O=S(=O)(NC1CCNC1)c1cccc(-c2cnc3[nH]c(-c4ccccc4)cc3c2)n1` (stereo not shown) [Compound P-0072, 6-(2-phenyl-1H-pyrrolo[2,3-b]pyridin-5-yl)-N-pyrrolidin-3-yl-pyridine-2-sulfonamide], the GI50 in test [1] was in the range of 0.0001 to 10 µM. Moreover, the pIC50 at c-KIT was 5.00 to 10.00.
The corresponding values for `CNC1CCN(C(=O)c2n[nH]c3ccc(-c4cnc5[nH]c(-c6ccccc6)cc5c4)cc23)C1` (stereo not shown) [Compound P-0028, [3-(methylamino)pyrrolidin-1-yl]-[5-(2-phenyl-1H-pyrrolo[2,3-b]pyridin-5-yl)-1H-indazol-3-yl]methanone] are 0.0001 to 10 µM and 5.00 to 10.00.
In the case of `N[C@H]1CCN(C(=O)c2n[nH]c3ccc(-c4cnc5[nH]c(-c6ccccc6)cc5c4)cc23)C1` [Compound P-0016, [(3S)-3-aminopyrrolidin-1-yl]-[5-(2-phenyl-1H-pyrrolo[2,3-b]pyridin-5-yl)-1H-indazol-3-yl]methanone], in test [1], the GI50 is 0.0001 to 10 µM. Also, the negative-log IC50 (pIC50) on c-KIT was 5.00 to 10.00.
Turning to `O=C(c1cccc(-c2cnc3[nH]c(-c4ccccc4)cc3c2)n1)N1CCC(NC2CC2)C1` (stereo not shown) [Compound P-0085, [3-(cyclopropylamino)pyrrolidin-1-yl]-[6-(2-phenyl-1H-pyrrolo[2,3-b]pyridin-5-yl)-2-pyridyl]methanone], the GI50 in test [1] fell in the range of 0.0001 to 10 µM. In addition, the pIC50 at c-KIT is 5.00 to 10.00.
In the same order, the values of `O=S(=O)(NC1CNC1)c1cccc(-c2cnc3[nH]c(-c4ccccc4)cc3c2)n1` [Compound P-0071, N-(azetidin-3-yl)-6-(2-phenyl-1H-pyrrolo[2,3-b]pyridin-5-yl)pyridine-2-sulfonamide] are 0.0001 to 10 µM and 4.30 to 5.00.
Turning to `O=C(c1cccc(-c2cnc3[nH]c(-c4ccccc4)cc3c2)n1)N1CCC(C(F)(F)F)C1` (stereo not shown) [Compound P-0103, [6-(2-phenyl-1H-pyrrolo[2,3-b]pyridin-5-yl)-2-pyridyl]-[3-(trifluoromethyl)pyrrolidin-1-yl]methanone], the GI50 in test [1] fell in the range of 0.0001 to 10 µM. In addition, on c-KIT, the pIC50 is 4.00 to 4.30.
In the same order, the values of `O=C(c1cccc(-c2cnc3[nH]c(-c4ccccc4)cc3c2)n1)N1CCC(N2CCOCC2)C1` (stereo not shown) [Compound P-0102, (3-morpholinopyrrolidin-1-yl)-[6-(2-phenyl-1H-pyrrolo[2,3-b]pyridin-5-yl)-2-pyridyl]methanone] are 0.0001 to 10 µM and 4.00 to 4.30.
Take `CONC(=O)c1cccc(-c2cnc3[nH]c(-c4ccccc4)cc3c2)c1` [Compound P-0003, N-methoxy-3-(2-phenyl-1H-pyrrolo[2,3-b]pyridin-5-yl)benzamide]: the GI50 in test [1] lay within 0.0001 to 10 µM. At c-KIT, the negative-log IC50 (pIC50) was 5.00 to 10.00.
In the same order, the values of `NC1CCC(NC(=O)c2cccc(-c3cnc4[nH]c(-c5ccccc5)cc4c3)n2)CC1` (stereo not shown) [Compound P-0018, N-(4-aminocyclohexyl)-6-(2-phenyl-1H-pyrrolo[2,3-b]pyridin-5-yl)pyridine-2-carboxamide] are 0.0001 to 10 µM and 5.00 to 10.00.
In the same order, the values of `CCOC(=O)C1CCN(C(=O)c2cccc(-c3cnc4[nH]c(-c5ccccc5)cc4c3)n2)CC1` [Compound P-0025, ethyl 1-[6-(2-phenyl-1H-pyrrolo[2,3-b]pyridin-5-yl)pyridine-2-carbonyl]piperidine-4-carboxylate] are 0.0001 to 10 µM and 5.00 to 10.00.
Turning to `c1ccc(-c2cc3cc(-c4cccc(OC5CCNCC5)n4)cnc3[nH]2)cc1` [Compound P-0050, 2-phenyl-5-[6-(4-piperidyloxy)-2-pyridyl]-1H-pyrrolo[2,3-b]pyridine], the GI50 in test [1] was 0.0001 to 10 µM. Besides, on c-KIT, the pIC50 was 5.00 to 10.00.
The corresponding values for `N[C@H]1CCN(C(=O)c2ncc(-c3cnc4[nH]c(-c5ccccc5)cc4c3)s2)C1` [Compound P-0054, [(3S)-3-aminopyrrolidin-1-yl]-[5-(2-phenyl-1H-pyrrolo[2,3-b]pyridin-5-yl)thiazol-2-yl]methanone] are 0.0001 to 10 µM and 5.00 to 10.00.
The corresponding values for `CC(=O)NC1CCN(C(=O)c2cccc(-c3cnc4[nH]c(-c5ccccc5)cc4c3)n2)CC1` [Compound P-0020, N-[1-[6-(2-phenyl-1H-pyrrolo[2,3-b]pyridin-5-yl)pyridine-2-carbonyl]-4-piperidyl]acetamide] are 0.0001 to 10 µM and 5.00 to 10.00.
As for `CNC(=O)Nc1ccc(-c2cnc3[nH]c(-c4ccccc4)cc3c2)cc1` [Compound P-0006, 1-methyl-3-[4-(2-phenyl-1H-pyrrolo[2,3-b]pyridin-5-yl)phenyl]urea], the GI50 in test [1] fell in the range of 0.0001 to 10 µM. For the same molecule, the pIC50 at c-KIT was 5.00 to 10.00.
